Where two headings read alike, the source gives them in different places.
What was measured:
[1] = Chelator protonation constants by pH potentiometry; type: physicochemical; details: I = 0.1 M KCl, 25 °C
[2] = for pPb (pM), -log [Pb]free: [Pb]tot = 10^-6 M, [L]tot = 10^-5 M; for pPb (pM), -log [Pb]free / log K'Pb (conditional stability constant): pH 7.4, 25 °C, I = 0.1 M
[3] = Non-radioactive Pb2+ challenge; type: physicochemical; details: 20-fold excess non-radioactive Pb, after 72 hours; 203Pb complex
EDTA challenge = type: physicochemical; details: 20-fold excess EDTA, after 72 hours; 203Pb complex
[4] = cited from earlier work
[5] = pH 7.4
[6] = Pb2+ complex, cited from earlier work
[7] = Pb2+ complex, I = 0.1 M KCl, 25 °C

| SMILES | log K1 (protonation constant) [1] | log K2 (protonation constant) [1] | log K3 (protonation constant) [1] | log K4 (protonation constant) [1] | log KPbHL [2, 7] | log KPbL (thermodynamic stability constant, log KML) [2, 7] | pPb (pM), -log [Pb]free [2] | log K'Pb (conditional stability constant) [2] | also measured |
| --- | --- | --- | --- | --- | --- | --- | --- | --- | --- |
| c1ccc(CN2CCN(Cc3ccccn3)CCN(Cc3ccccn3)CCN(Cc3ccccn3)CC2)nc1 [Cyclen-4Py, 1,4,7,10-tetrakis(pyridin-2-ylmethyl)-1,4,7,10-tetraazacyclododecane] | 10.05(4) | 7.53(2) | 3.54(7) | 2.23(6) | 2.06(9) | 19.95(3) | 17.88 | 16.93 | complex remained intact, non-radioactive Pb2+ challenge [3]: 98.0 ± 0.4%; complex remained intact, EDTA challenge (EDTA challenge): 98.1 ± 0.5% |
| O=C(O)CN1CCN(CC(=O)O)CCN(CC(=O)O)CCN(CC(=O)O)CC1 [DOTA, 1,4,7,10-tetraazacyclododecane-1,4,7,10-tetraacetic acid] |  |  |  |  |  |  |  |  | log K1 (protonation constant) ([4]; I = 0.1 M Me4NNO3): 12.09; log K2 (protonation constant) ([4]; I = 0.1 M Me4NNO3): 9.76; log K3 (protonation constant) ([4]; I = 0.1 M Me4NNO3): 4.559; log K4 (protonation constant) ([4]; I = 0.1 M Me4NNO3): 4.09; log K'Pb (conditional stability constant) [5]: 15.64; log KPbL (thermodynamic stability constant, log KML) ([6]; I = 0.1 M NaCl): 25.3(1)[39] |
| c1ccc(CN2CCOCCOCCN(Cc3ccccn3)CCOCCOCC2)nc1 [NOON-2Py, 7,16-bis(pyridin-2-ylmethyl)-1,4,10,13-tetraoxa-7,16-diazacyclooctadecane] |  |  |  |  |  |  | 12.29 | 11.33 | log K1 (protonation constant) ([4]; I = 0.1 M KCl): 7.44; log K2 (protonation constant) ([4]; I = 0.1 M KCl): 6.26; log K3 (protonation constant) ([4]; I = 0.1 M KCl): 1.38; log KPbL (thermodynamic stability constant, log KML) ([6]; I = 0.1 M KCl): 11.67 |
| NC(=O)CN1CCN(CC(N)=O)CCN(CC(N)=O)CCN(CC(N)=O)CC1 [DOTAM, 1,4,7,10-tetrakis(carbamoylmethyl)-1,4,7,10-tetraazacyclododecane] |  |  |  |  |  |  |  |  | log K1 (protonation constant) ([4]; I = 0.1 M NaNO3): 7.70(1); log K2 (protonation constant) ([4]; I = 0.1 M NaNO3): 6.21(1); log KPbL (thermodynamic stability constant, log KML) ([6]; I = 0.1 M NaNO3): >19 |
| c1ccc(CN2CCOCCN(Cc3ccccn3)CCN(Cc3ccccn3)CCOCCN(Cc3ccccn3)CC2)nc1 [Crown-4Py, 4,7,13,16-tetrakis(pyridin-2-ylmethyl)-1,10-dioxa-4,7,13,16-tetraazacyclooctadecane] | 7.91(4) | 7.33(4) | 4.64(1) | 4.00(6) | 5.22(1) | 13.29(5) | 13.40 | 12.45 | log KPbH2L [2, 7]: 3.50(8) |
